Experiments:
[1] = system: bentgrass (breed: penncross); experiment: Example 6: bentgrass rubbed against mascarenegrass treated with asulam plus surfactant; settings: in vivo
Description: Soil was put into a 1/300,000 ha pot, and mascarenegrass were cultivated. Further, soil was put into a 1/1,000,000 ha pot, and bentgrass (breed: penncross) was cultivated. A predetermined amount (asulam: 4625 g a.i./ha) of a treating liquid containing asulam as an active component (tradename: Arsilan liquid preparation, manufactured by Ishihara Sangyo Kaisha, Ltd.) was diluted with water containing a predetermined amount of Maku-pika (tradename, the same as in Example 1), and applied by foliar treatment to the mascarenegrass by a small spraygun so that the amount of the treating liquid corresponds to 2,000 L/ha. Upon expiration of 6 hours after the treatment, the bentgrass not treated with asulam was rubbed against the mascarenegrass treated therewith (the pot of bentgrass was permitted to slide and reciprocate once).
On 12th day after the treatment with asulam, the state of growth of the bentgrass was evaluated in the same manner as in Example 3, and the growth inhibition rate and the degree of discoloring are shown in Table 9. Further, as comparative areas, an area wherein Kusa-rino (tradename, the same as in Example 1) was used, and an area wherein no surfactant was used, were provided.

[2] = system: bentgrass (breed: penncross); experiment: Example 1: bentgrass pot rubbed against mascarenegrass treated with flazasulfuron plus surfactant; settings: in vivo
Description: Soil was put into a 1/300,000 ha pot, and mascarenegrass was cultivated. Further, soil was put into a 1/1,000,000 ha pot, and bentgrass (breed: penncross) was cultivated. A predetermined amount (flazasulfuron: 50 g a.i./ha) of water dispersible granules (tradename: SHIBAGEN DF, manufactured by Ishihara Sangyo Kaisha, Ltd.) containing flazasulfuron as an active ingredient, was diluted with water containing a predetermined amount of a silicone surfactant (tradename: Maku-pika, manufactured by Ishihara Sangyo Kaisha, Ltd.) and applied by foliar treatment to the mascarenegrass by a small spraygun so that the amount of the treating liquid corresponds to 2,000 L/ha. Immediately after the treatment or upon expiration of 6 hours after the treatment, the bentgrass not treated with flazasulfuron was rubbed against the mascarenegrass treated with flazasulfuron (the pot of bentgrass was permitted to slide and reciprocate once).
On 14th day after the treatment with flazasulfuron, the state of growth of the bentgrass was visually observed and investigated, and the growth inhibition rate and the degree of necrosis evaluated in accordance with the following standards are shown in Tables 1 and 2. […]

[3] = system: bentgrass (breed: penncross); experiment: Example 2: tester walked on flazasulfuron-treated Japanese lawngrass, then stepped on bentgrass; settings: in vivo, 21 day
Description: Japanese lawngrass was cultivated on ground in 0.6 m^2 (0.4 m×1.5 m). Further, soil was put into a 1/300,000 ha pot, and bentgrass (breed: penncross) was cultivated. A predetermined amount (flazasulfuron: 50 g a.i./ha) of SHIBAGEN DF (tradename, the same as in Example 1) was diluted with water containing a predetermined amount of Maku-pika (tradename, the same as in Example 1) and applied by foliar treatment to the Japanese lawngrass by a small spraygun so that the amount of the treating liquid corresponds to 2,000 L/ha. Immediately after the treatment or upon expiration of 3 hours after the treatment, a tester walked (5 steps) on the Japanese lawngrass treated with flazasulfuron and then stepped on the bentgrass.
On 21st day after treatment with flazasulfuron, the state of growth of the bentgrass was evaluated in the same manner as in Example 1, and the growth inhibition rate is shown in Tables 3 and 4. Further, as comparative areas, an area wherein Kusa-rino (tradename, the same as in Example 1) was used, and an area wherein no surfactant was used, were provided.

[4] = system: bentgrass (breed: Minakuru); experiment: Example 4: field test, tester walked on flazasulfuron-treated mascarenegrass, then stepped on bentgrass; settings: in vivo
Description: On ground, mascarenegrass in 50 m^2 (2 m×25 m) and bentgrass (breed: Minakuru) in 0.12 m^2 (0.35 m×0.35 m) were respectively cultivated. A predetermined amount (flazasulfuron: 100 g a.i./ha) of a wettable powder containing flazasulfuron as an active ingredient (tradename: SHIBAGEN WP, manufactured by Ishihara Sangyo Kaisha, Ltd.) was diluted with water containing a predetermined amount of a silicone surfactant (tradename: Silwet L-77, manufactured by Witco) and applied by foliar treatment to the mascarenegrass by a knapsack power sprayer so that the amount of the treating liquid corresponds to 2,000 L/ha. After the treating liquid dried, a tester walked (100 m) on the mascarenegrass treated with flazasulfuron, then walked (10 m) on mascarenegrass not treated with flazasulfuron and then stepped on five times on the bentgrass.
On 11th day after the treatment with flazasulfuron, the state of growth of the bentgrass was evaluated in the same manner as in Example 3, and the growth inhibition rate and the degree of discoloring are shown in Table 7. Further, as comparative areas, an area wherein Kusa-rino (tradename, the same as in Example 1) was used, and an area wherein no surfactant was used, were provided.

[5] = system: bentgrass (breed: penncross); experiment: Example 10: bentgrass rubbed against mascarenegrass treated with flazasulfuron plus surfactant (Breakthru); settings: in vivo
Description: (§1) Soil was put into a 1/300,000 ha pot, and mascarenegrass was cultivated. Further, soil was put into a 1/1,000,000 ha pot, and bentgrass (breed: penncross) was cultivated. A predetermined amount (flazasulfuron: 50 g a.i./ha) of SHIBAGEN DF (tradename, the same as in Example 1) was diluted with water containing a predetermined amount of a silicone surfactant (tradename: Breakthru, manufactured by Sankei Chemical Co., Ltd.) and applied by foliar treatment to the mascarenegrass by a small spraygun, so that the amount of the treating liquid corresponds to 2,000 L/ha. Upon expiration of 6 hours after the treatment, the bentgrass not treated with flazasulfuron, was rubbed against the mascarenegrass treated therewith (the pot of bentgrass was permitted to slide and reciprocate once).
On 21st day after the treatment with flazasulfuron, the state of growth of the bentgrass was evaluated in the same manner as in Example 3, and the growth inhibition rate and the degree of discoloring are shown in Table 13. Further, as comparative areas, an area wherein Kusa-rino (tradename, the same as in Example 1) was used, and an area wherein no surfactant was used, were provided.

[6] = system: bentgrass (breed: penncross); experiment: Example 7: bentgrass rubbed against mascarenegrass treated with rimsulfuron plus surfactant; settings: in vivo
Description: as §1, with “(rimsulfuron: 35.25” for “(flazasulfuron: 50”, “water dispersible granules containing rimsulfuron” for “SHIBAGEN DF (tradename, the same”, “an active ingredient (tradename: Hurley DF, manufactured by MARUWA Biochemical Co., Ltd.)” for “in Example 1)”, “Maku-pika (tradename, the same as in Example 1)” for “a silicone surfactant (tradename: Breakthru, manufactured by Sankei Chemical Co., Ltd.)”, “rimsulfuron” for “flazasulfuron,”
On 13th day after the treatment with rimsulfuron, the state of growth of the bentgrass was evaluated in the same manner as in Example 3, and the growth inhibition rate and the degree of discoloring are shown in Table 10. Further, as comparative areas, an area wherein Kusa-rino (tradename, the same as in Example 1) or Surfactant WK (tradename, manufactured by MARUWA Biochemical Co., Ltd.) was used, and an area wherein no surfactant was used, were provided.

[7] = system: bentgrass (breed: penncross); experiment: Example 5: bentgrass rubbed against mascarenegrass treated with trifloxysulfuron sodium salt plus surfactant; type: in vivo; settings: trifloxysulfuron sodium salt 45 g a.i./ha, spreading agent not added, rubbed 6 hours after treatment, 12th day
Description: Soil was put into a 1/300,000 ha pot, and mascarenegrass was cultivated. Further, soil was put into a 1/1,000,000 ha pot, and bentgrass (breed: penncross) was cultivated. A predetermined amount (trifloxysulfuron sodium salt: 45 g a.i./ha) of water dispersible granules containing trifloxysulfuron sodium salt as an active ingredient (tradename: Monument water dispersible granules, manufactured by Syngenta Japan K.K.) was diluted with water containing a predetermined amount of Maku-pika (tradename, the same as in Example 1) and applied by foliar treatment to the mascarenegrass by a small spraygun, so that the amount of the treating liquid corresponds to 2,000 L/ha. Upon expiration of 6 hours after the treatment, the bentgrass not treated with trifloxysulfuron sodium salt, was rubbed against the mascarenegrass treated therewith (the pot of bentgrass was permitted to slide and reciprocate once).
On 12th day after the treatment with trifloxysulfuron sodium salt, the state of growth of the bentgrass was evaluated in the same manner as in Example 3, and the growth inhibition rate and the degree of discoloring are shown in Table 8. Further, as comparative areas, an area wherein Kusa-rino (tradename, the same as in Example 1) was used, and an area wherein no surfactant was used, were provided.

COC(=O)NS(=O)(=O)c1ccc(N)cc1 [asulam]
Bentgrass Discoloring [1]: 2.5
Bentgrass Growth inhibition rate ([1]; penncross, bentgrass, 12 day): 45%

COc1cc(OC)nc(NC(=O)NS(=O)(=O)c2ncccc2C(F)(F)F)n1 [flazasulfuron]
Bentgrass Necrosis [2]: 0.8
Bentgrass Growth inhibition rate (%) ([2]; penncross, bentgrass, 14 day): 48%
Bentgrass Growth inhibition rate (%) [3]: 30%
Bentgrass Growth inhibition rate (%) ([4]; Minakuru, bentgrass, 11 day): 28%
Bentgrass Discoloring [4]: 1.0
Bentgrass Discoloring [5]: 0.5
Bentgrass Growth inhibition rate ([5]; penncross, bentgrass, 21 day): 57%

CCS(=O)(=O)c1cccnc1S(=O)(=O)NC(=O)Nc1nc(OC)cc(OC)n1 [rimsulfuron]
Bentgrass Discoloring [6]: 1.0
Bentgrass Growth inhibition rate ([6]; penncross, bentgrass, 13 day): 35%

COc1cc(OC)nc(NC(=O)[N-]S(=O)(=O)c2ncccc2OCC(F)(F)F)n1.[Na+] [trifloxysulfuron sodium salt]
Bentgrass Growth inhibition rate [7]: 60%
Bentgrass Discoloring ([7]; degree 0-5.0): 1.5

From patent publication US9107404B2, “Method for reducing undesirable effects on turfgrass” (Ishihara Sangyo Kaisha, Ltd., priority 2010, dated 2015)
